Values quoted from earlier work in patent US10092615B2, “Nutritional supplements for improving male fertility” (Fairhaven Health, LLC, priority 2016, dated 2018).

Legend:
[1] = tested on: sperm samples from 22 asthenospermic men; details: 50 μM, in vitro incubation
infertile patients = details: given for a mean 103 days
[2] = tested on: patients affected by male infertility; details: compared to placebo; for forward sperm motility (WMD): 95% CI (0.49, 23.16); for forward sperm motility (WMD) / total sperm motility (WMD): p=0.04; for total sperm motility (WMD): 95% CI (1.72, 13.14); for pregnancy rate (OR): 95% CI (2.08, 8.08), p<0.0001; for semen volume (WMD): 95% CI (−0.02, 0.58), p=0.07; for semen volume (WMD) / sperm concentration (WMD): without significant difference; for sperm concentration (WMD): 95% CI (−4.47, 15.84), p=0.27; for atypical sperm cell (WMD): 95% CI (−7.89, −3.56), p<0.00001

| SMILES | sperm motility [1] | standard sperm parameters (infertile patients) | fertilization rate (infertile patients; p<0.05) | forward sperm motility (WMD) [2] | total sperm motility (WMD) [2] | pregnancy rate (OR) [2] | semen volume (WMD) [2] | sperm concentration (WMD) [2] | atypical sperm cell (WMD) [2] |
| --- | --- | --- | --- | --- | --- | --- | --- | --- | --- |
| COC1=C(OC)C(=O)C(C/C=C(\C)CC/C=C(\C)CC/C=C(\C)CC/C=C(\C)CC/C=C(\C)CC/C=C(\C)CC/C=C(\C)CC/C=C(\C)CC/C=C(\C)CCC=C(C)C)=C(C)C1=O [Coenzyme Q10] | significant increases in motility | no significant changes | significant improvement |  |  |  |  |  |  |
| C[N+](C)(C)C[C@H](O)CC(=O)[O-] [L-carnitine] |  |  |  | 11.83 | 7.43 | 4.10 | 0.28 | 5.69 | −5.72 |
| CC(=O)O[C@H](CC(=O)[O-])C[N+](C)(C)C [acetyl-L-carnitine] |  |  |  | 11.83 | 7.43 | 4.10 | 0.28 | 5.69 | −5.72 |
